Patent publication US8952024B2, “Herbicidal pyrimidone derivatives” (E I du Pont de Nemours and Company, priority 2009, dated 2015)

Tests used:
Assay in all cases: Test B pre-/postemergence plant response
Type in all cases: in vivo
[1] = test system: woolly cupgrass (Eriochloa villosa); settings: Postemergence
Method in brief: (§1)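 Visual injury, 0–100 scale (100 = complete control), rated against controls after 13 to 15 days in greenhouse. Pre-emergence: seeds in loam/sand soil, treated at planting. Post-emergence: 1- to 4-leaf plants (2 to 18 cm) in peat/vermiculite medium. Compounds formulated in non-phytotoxic solvent with surfactant.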

[2] = test system: cocklebur (Xanthium strumarium); settings: Postemergence
Method in brief: as §1

[3] = test system: velvetleaf (Abutilon theophrasti); settings: Postemergence
Method in brief: as §1

[4] = test system: large crabgrass (Digitaria sanguinalis); settings: Postemergence
Method in brief: as §1

[5] = test system: morningglory (Ipomoea coccinea); settings: Postemergence
Method in brief: as §1

[6] = test system: bermudagrass (Cynodon dactylon); settings: for Bermudagrass plant response rating (0 to 100 scale): postemergence, 0 is no effect, 100 is complete control; for Plant response rating, Bermudagrass: Postemergence
Method in brief: as §1

[7] = test system: wheat (Triticum aestivum); settings: Postemergence
Method in brief: as §1

[8] = test system: Italian ryegrass (Lolium multiflorum); settings: Postemergence
Method in brief: as §1

[9] = test system: yellow nutsedge (Cyperus esculentus); settings: Postemergence
Method in brief: as §1

[10] = test system: downy bromegrass (Bromus tectorum); settings: for Bromegrass, Downy plant response rating (0 to 100 scale): postemergence, 0 is no effect, 100 is complete control; for Plant response rating, Bromegrass, Downy: Postemergence
Method in brief: as §1

soybean (Glycine max) = settings: Postemergence
Method in brief: as §1

kochia (Kochia scoparia) = settings: Postemergence
Method in brief: as §1

[11] = 31 g ai/ha, 0 to 100 scale (0 no effect, 100 complete control)
[12] = 125 g ai/ha, scale 0 to 100 (0 no effect, 100 complete control)
[13] = 250 g ai/ha, scale 0 to 100 (0 no effect, 100 complete control), 13 to 15 days
[14] = 62 g ai/ha, scale 0 to 100 (0 no effect, 100 complete control)

O=C1CCCC(O)=C1C(=O)c1cnc(-c2cccc(F)c2)n(C2CCCCC2)c1=O [Compound 187]
Plant response rating, Cupgrass, Woolly [1, 11]: 80
Plant response rating, Cupgrass, Woolly [1, 12]: 85
Plant response rating, Cupgrass, Woolly [1, 13]: 95
Plant response rating, Cocklebur [2, 11]: 100
Plant response rating, Cocklebur [2, 12]: 100
Plant response rating, Cocklebur [2, 13]: 100
Plant response rating, Velvetleaf [3, 11]: 90
Plant response rating, Velvetleaf [3, 12]: 100
Plant response rating, Velvetleaf [3, 13]: 100
Plant response rating, Crabgrass, Large [4, 11]: 85
Plant response rating, Crabgrass, Large [4, 12]: 100
Plant response rating, Crabgrass, Large [4, 13]: 100
Plant response rating, Morningglory [5, 11]: 80
Plant response rating, Morningglory [5, 12]: 100
Plant response rating, Morningglory [5, 13]: 100
Bermudagrass plant response rating (0 to 100 scale) ([6]; 62 g ai/ha, 13 to 15 days): 85
Plant response rating, Bermudagrass [6, 11]: 75
Plant response rating, Bermudagrass [6, 12]: 100
Plant response rating, Bermudagrass [6, 13]: 100
Plant response rating, Wheat [7, 11]: 0
Plant response rating, Wheat [7, 12]: 5
Plant response rating, Wheat [7, 13]: 5
Plant response rating, Ryegrass, Italian [8, 11]: 0
Plant response rating, Ryegrass, Italian [8, 12]: 10
Plant response rating, Ryegrass, Italian [8, 13]: 30
Plant response rating, Nutsedge, Yellow [9, 11]: 45
Plant response rating, Nutsedge, Yellow [9, 12]: 65
Plant response rating, Nutsedge, Yellow [9, 13]: 75
Bromegrass, Downy plant response rating (0 to 100 scale) ([10]; 62 g ai/ha, 13 to 15 days): 30
Plant response rating, Bromegrass, Downy [10, 11]: 5
Plant response rating, Bromegrass, Downy [10, 12]: 35
Plant response rating, Bromegrass, Downy [10, 13]: 40
Plant response rating, Soybean (soybean (Glycine max); [11]): 98
Plant response rating, Soybean (soybean (Glycine max); [12]): 100
Plant response rating, Soybean (soybean (Glycine max); [13]): 100
Plant response rating, Kochia (kochia (Kochia scoparia); [11]): 40
Plant response rating, Kochia (kochia (Kochia scoparia); [12]): 70
Plant response rating, Kochia (kochia (Kochia scoparia); [13]): 80

O=C1CCCC(O)=C1C(=O)c1cnc(-c2cccs2)n(C2CCCCC2)c1=O [Compound 189]
Plant response rating, Cupgrass, Woolly [1, 11]: 70
Plant response rating, Cupgrass, Woolly [1, 12]: 75
Plant response rating, Cupgrass, Woolly [1, 13]: 80
Plant response rating, Cocklebur [2, 11]: 60
Plant response rating, Cocklebur [2, 12]: 100
Plant response rating, Cocklebur [2, 13]: 100
Plant response rating, Velvetleaf [3, 11]: 85
Plant response rating, Velvetleaf [3, 12]: 100
Plant response rating, Velvetleaf [3, 13]: 100
Plant response rating, Crabgrass, Large [4, 11]: 75
Plant response rating, Crabgrass, Large [4, 12]: 95
Plant response rating, Crabgrass, Large [4, 13]: 100
Plant response rating, Morningglory [5, 11]: 100
Plant response rating, Morningglory [5, 12]: 100
Plant response rating, Morningglory [5, 13]: 100
Bermudagrass plant response rating (0 to 100 scale) ([6]; 62 g ai/ha, 13 to 15 days): 15
Plant response rating, Bermudagrass [6, 11]: 10
Plant response rating, Bermudagrass [6, 12]: 65
Plant response rating, Bermudagrass [6, 13]: 70
Plant response rating, Wheat [7, 11]: 0
Plant response rating, Wheat [7, 12]: 0
Plant response rating, Wheat [7, 13]: 0
Plant response rating, Ryegrass, Italian [8, 11]: 0
Plant response rating, Ryegrass, Italian [8, 12]: 5
Plant response rating, Ryegrass, Italian [8, 13]: 5
Plant response rating, Nutsedge, Yellow [9, 11]: 20
Plant response rating, Nutsedge, Yellow [9, 12]: 55
Plant response rating, Nutsedge, Yellow [9, 13]: 65
Bromegrass, Downy plant response rating (0 to 100 scale) ([10]; 62 g ai/ha, 13 to 15 days): 5
Plant response rating, Bromegrass, Downy [10, 11]: 0
Plant response rating, Bromegrass, Downy [10, 12]: 5
Plant response rating, Bromegrass, Downy [10, 13]: 10
Plant response rating, Soybean (soybean (Glycine max); [11]): 90
Plant response rating, Soybean (soybean (Glycine max); [12]): 98
Plant response rating, Soybean (soybean (Glycine max); [13]): 100
Plant response rating, Kochia (kochia (Kochia scoparia); [11]): 85
Plant response rating, Kochia (kochia (Kochia scoparia); [12]): 98
Plant response rating, Kochia (kochia (Kochia scoparia); [13]): 100

CCCn1c(-c2cccc(Cl)c2)ncc(C(=O)C2=C(O)CCCC2=O)c1=O [Compound 190]
Plant response rating, Cupgrass, Woolly [1, 11]: 75
Plant response rating, Cupgrass, Woolly [1, 12]: 80
Plant response rating, Cupgrass, Woolly [1, 13]: 85
Plant response rating, Cocklebur [2, 11]: 40
Plant response rating, Cocklebur [2, 12]: 95
Plant response rating, Cocklebur [2, 13]: 100
Plant response rating, Velvetleaf [3, 11]: 100
Plant response rating, Velvetleaf [3, 12]: 100
Plant response rating, Velvetleaf [3, 13]: 100
Plant response rating, Crabgrass, Large [4, 11]: 60
Plant response rating, Crabgrass, Large [4, 12]: 80
Plant response rating, Crabgrass, Large [4, 13]: 90
Plant response rating, Morningglory [5, 11]: 40
Plant response rating, Morningglory [5, 12]: 85
Plant response rating, Morningglory [5, 13]: 100
Bermudagrass plant response rating (0 to 100 scale) ([6]; 62 g ai/ha, 13 to 15 days): 100
Plant response rating, Bermudagrass [6, 11]: 98
Plant response rating, Bermudagrass [6, 12]: 100
Plant response rating, Bermudagrass [6, 13]: 100
Plant response rating, Wheat [7, 11]: 0
Plant response rating, Wheat [7, 12]: 30
Plant response rating, Wheat [7, 13]: 30
Plant response rating, Ryegrass, Italian [8, 11]: 0
Plant response rating, Ryegrass, Italian [8, 12]: 20
Plant response rating, Ryegrass, Italian [8, 13]: 30
Plant response rating, Nutsedge, Yellow [9, 11]: 35
Plant response rating, Nutsedge, Yellow [9, 12]: 65
Plant response rating, Nutsedge, Yellow [9, 13]: 75
Bromegrass, Downy plant response rating (0 to 100 scale) ([10]; 62 g ai/ha, 13 to 15 days): 30
Plant response rating, Bromegrass, Downy [10, 11]: 5
Plant response rating, Bromegrass, Downy [10, 12]: 35
Plant response rating, Bromegrass, Downy [10, 13]: 35
Plant response rating, Soybean (soybean (Glycine max); [11]): 80
Plant response rating, Soybean (soybean (Glycine max); [12]): 95
Plant response rating, Soybean (soybean (Glycine max); [13]): 98
Plant response rating, Kochia (kochia (Kochia scoparia); [11]): 0
Plant response rating, Kochia (kochia (Kochia scoparia); [12]): 98
Plant response rating, Kochia (kochia (Kochia scoparia); [13]): 98

Cc1cc(-n2c(-c3cccc(F)c3)ncc(C(=O)C3=C(O)CCCC3=O)c2=O)ccc1F [Compound 191]
Plant response rating, Cupgrass, Woolly [1, 11]: 85
Plant response rating, Cupgrass, Woolly [1, 14]: 90
Plant response rating, Cupgrass, Woolly [1, 12]: 90
Plant response rating, Cupgrass, Woolly [1, 13]: 98
Plant response rating, Cocklebur [2, 11]: 90
Plant response rating, Cocklebur [2, 14]: 98
Plant response rating, Cocklebur [2, 12]: 98
Plant response rating, Cocklebur [2, 13]: 100
Plant response rating, Velvetleaf [3, 11]: 75
Plant response rating, Velvetleaf [3, 14]: 80
Plant response rating, Velvetleaf [3, 12]: 90
Plant response rating, Velvetleaf [3, 13]: 100
Plant response rating, Crabgrass, Large [4, 11]: 85
Plant response rating, Crabgrass, Large [4, 14]: 100
Plant response rating, Crabgrass, Large [4, 12]: 100
Plant response rating, Crabgrass, Large [4, 13]: 100
Plant response rating, Morningglory [5, 11]: 40
Plant response rating, Morningglory [5, 14]: 65
Plant response rating, Morningglory [5, 12]: 90
Plant response rating, Morningglory [5, 13]: 100
Plant response rating, Bermudagrass [6, 11]: 100
Plant response rating, Bermudagrass [6, 14]: 100
Plant response rating, Bermudagrass [6, 12]: 100
Plant response rating, Bermudagrass [6, 13]: 100
Plant response rating, Wheat [7, 11]: 35
Plant response rating, Wheat [7, 14]: 40
Plant response rating, Wheat [7, 12]: 55
Plant response rating, Wheat [7, 13]: 65
Plant response rating, Ryegrass, Italian [8, 11]: 40
Plant response rating, Ryegrass, Italian [8, 14]: 40
Plant response rating, Ryegrass, Italian [8, 12]: 50
Plant response rating, Ryegrass, Italian [8, 13]: 50
Plant response rating, Nutsedge, Yellow [9, 11]: 40
Plant response rating, Nutsedge, Yellow [9, 14]: 40
Plant response rating, Nutsedge, Yellow [9, 12]: 55
Plant response rating, Nutsedge, Yellow [9, 13]: 70
Plant response rating, Bromegrass, Downy [10, 11]: 35
Plant response rating, Bromegrass, Downy [10, 14]: 40
Plant response rating, Bromegrass, Downy [10, 12]: 50
Plant response rating, Bromegrass, Downy [10, 13]: 75
Plant response rating, Soybean (soybean (Glycine max); [11]): 90
Plant response rating, Soybean (soybean (Glycine max); [14]): 95
Plant response rating, Soybean (soybean (Glycine max); [12]): 100
Plant response rating, Soybean (soybean (Glycine max); [13]): 100
Plant response rating, Kochia (kochia (Kochia scoparia); [11]): 5
Plant response rating, Kochia (kochia (Kochia scoparia); [14]): 10
Plant response rating, Kochia (kochia (Kochia scoparia); [12]): 25
Plant response rating, Kochia (kochia (Kochia scoparia); [13]): 35

O=C1CCCC(O)=C1C(=O)c1cnc(-c2ccc(F)cc2)n(C2CCCCC2)c1=O [Compound 197]
Plant response rating, Cupgrass, Woolly [1, 11]: 70
Plant response rating, Cupgrass, Woolly [1, 14]: 85
Plant response rating, Cupgrass, Woolly [1, 12]: 90
Plant response rating, Cupgrass, Woolly [1, 13]: 98
Plant response rating, Cocklebur [2, 11]: 80
Plant response rating, Cocklebur [2, 14]: 100
Plant response rating, Cocklebur [2, 12]: 100
Plant response rating, Cocklebur [2, 13]: 100
Plant response rating, Velvetleaf [3, 11]: 80
Plant response rating, Velvetleaf [3, 14]: 80
Plant response rating, Velvetleaf [3, 13]: 100
Plant response rating, Crabgrass, Large [4, 11]: 75
Plant response rating, Crabgrass, Large [4, 14]: 85
Plant response rating, Crabgrass, Large [4, 12]: 98
Plant response rating, Crabgrass, Large [4, 13]: 100
Plant response rating, Morningglory [5, 11]: 98
Plant response rating, Morningglory [5, 14]: 100
Plant response rating, Morningglory [5, 12]: 100
Plant response rating, Morningglory [5, 13]: 100
Plant response rating, Bermudagrass [6, 11]: 95
Plant response rating, Bermudagrass [6, 14]: 100
Plant response rating, Bermudagrass [6, 12]: 100
Plant response rating, Bermudagrass [6, 13]: 100
Plant response rating, Wheat [7, 11]: 0
Plant response rating, Wheat [7, 14]: 0
Plant response rating, Wheat [7, 13]: 40
Plant response rating, Ryegrass, Italian [8, 11]: 0
Plant response rating, Ryegrass, Italian [8, 14]: 0
Plant response rating, Ryegrass, Italian [8, 13]: 35
Plant response rating, Nutsedge, Yellow [9, 11]: 45
Plant response rating, Nutsedge, Yellow [9, 14]: 55
Plant response rating, Nutsedge, Yellow [9, 12]: 65
Plant response rating, Nutsedge, Yellow [9, 13]: 75
Plant response rating, Bromegrass, Downy [10, 11]: 15
Plant response rating, Bromegrass, Downy [10, 14]: 15
Plant response rating, Bromegrass, Downy [10, 12]: 30
Plant response rating, Bromegrass, Downy [10, 13]: 30
Plant response rating, Soybean (soybean (Glycine max); [11]): 98
Plant response rating, Soybean (soybean (Glycine max); [14]): 100
Plant response rating, Soybean (soybean (Glycine max); [13]): 100
Plant response rating, Kochia (kochia (Kochia scoparia); [11]): 65
Plant response rating, Kochia (kochia (Kochia scoparia); [14]): 80
Plant response rating, Kochia (kochia (Kochia scoparia); [12]): 95
Plant response rating, Kochia (kochia (Kochia scoparia); [13]): 98
